One data set addresses hCA IX (Homo sapiens, UniProt Q16790). The data set can be described thus: Stopped flow CO2 hydrase assay, hCA IX. As to conditions: for Selectivity index I/IX: inhibition of hCA IX over hCA I; for Selectivity index I/IX / Selectivity index II/IX: calculated from Ki; for Selectivity index II/IX: inhibition of hCA IX over hCA II.
A further data set concerns the target hCA XII (Homo sapiens, UniProt O43570). Description: Stopped flow CO2 hydrase assay, hCA XII. As to conditions: for Selectivity index I/XII: inhibition of hCA XII over hCA I; for Selectivity index I/XII / Selectivity index II/XII: calculated from Ki; for Selectivity index II/XII: inhibition of hCA XII over hCA II.
A further data set has as its target hCA I (Homo sapiens, UniProt P00915). Description: Stopped flow CO2 hydrase assay, hCA I.
The next data set deals with hCA II (Homo sapiens, UniProt P00918). Description: Stopped flow CO2 hydrase assay, hCA II.
The target in another data set is CA IX. As to conditions: cited from earlier work.

Sequence of hCA I (P00915 whole entry): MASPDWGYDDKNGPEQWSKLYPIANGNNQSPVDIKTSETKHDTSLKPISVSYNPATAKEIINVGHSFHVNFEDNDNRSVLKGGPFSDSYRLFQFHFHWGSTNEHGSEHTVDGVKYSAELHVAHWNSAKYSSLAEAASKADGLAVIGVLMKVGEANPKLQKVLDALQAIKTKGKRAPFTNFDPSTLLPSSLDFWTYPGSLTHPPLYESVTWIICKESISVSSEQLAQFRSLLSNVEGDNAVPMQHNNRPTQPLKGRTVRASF
Sequence of hCA XII (O43570 25-354): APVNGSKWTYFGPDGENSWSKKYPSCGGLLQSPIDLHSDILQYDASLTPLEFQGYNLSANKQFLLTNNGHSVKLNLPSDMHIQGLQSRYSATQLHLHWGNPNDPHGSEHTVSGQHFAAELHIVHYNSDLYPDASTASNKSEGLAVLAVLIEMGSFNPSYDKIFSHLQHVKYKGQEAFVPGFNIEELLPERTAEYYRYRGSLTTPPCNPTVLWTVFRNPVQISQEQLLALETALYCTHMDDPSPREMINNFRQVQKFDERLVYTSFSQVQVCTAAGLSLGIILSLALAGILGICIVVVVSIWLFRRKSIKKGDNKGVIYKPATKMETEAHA
Protocol for hCA II: (§1) The uncatalyzed rates were determined in the same manner and subtracted from the total observed rates. Stock solutions of inhibitor (0.1 mM) were prepared in distilled-deionized water and dilutions up to 0.01 nM were done thereafter with the assay buffer. Inhibitor and enzyme solutions were preincubated together for 15 min at room temperature prior to assay, in order to allow for the formation of the E-I complex. The inhibition constants were obtained by non-linear least-squares methods using PRISM 3 and the Cheng–Prusoff equation, as reported earlier,[29–32] and represent the mean from at least three different determinations.
Protocol for hCA IX: as §1
Protocol for hCA XII: as §1

Broadly, the Ki is a dissociation constant, usually derived from enzyme kinetics or from competition with a known ligand. One may read the melting point as the temperature of the solid-liquid transition. Turning to `CC(C)C(=O)Nc1ccc(C(=O)NC(=S)Nc2ccc(C(=O)O)cc2)cc1` [Compound 8e, 4-(3-(4-Isobutyramidobenzoyl)thioureido)benzoic acid], the melting point was in the range of 240 to 242 °C. Also, on hCA IX, the affinity, expressed as Ki, was 898 nM and the “Selectivity index I/IX” value is reported as 293. Moreover, on hCA XII, the affinity, expressed as Ki, was 102 nM. This molecule gave a Ki at hCA I of more than 100000 nM. Also, the Ki on hCA II was 430 nM.

Regarding `CC(=O)Nc1ccc(C(=O)NC(=S)Nc2ccc(S(N)(=O)=O)cc2)cc1` [Compound 7d, 4-Acetamido-N-((4-sulfamoylphenyl)carbamothioyl)benzamide], the melting point was 218 to 220 °C. This molecule also registered an inhibitory constant (Ki) at hCA IX of 168 nM. Also, the affinity at hCA XII corresponds to a Ki of 97 nM. The molecule further had a Ki on hCA I of 5450 nM. On hCA II, this molecule came in with a Ki of 701 nM.

With `Cc1ccc(C(=O)Nc2cccc(C(=O)NC(=S)Nc3ccc(S(N)(=O)=O)cc3)c2)cc1` [Compound 7c, 3-(4-Methylbenzamido)-N-((4-sulfamoylphenyl)carbamothioyl)benzamide], the melting point lay in the range of 210 to 212 °C. For the same molecule, at hCA IX, the Ki came out at 31.2 nM, the “Selectivity index I/IX” value is reported as 1.0 and the “Selectivity index II/IX” value is 2.0. At hCA XII, this molecule came in with a Ki of more than 100000 nM. On hCA I, this molecule registered a Ki of 33 nM. Also, affinity at hCA II was put at a Ki of 56.6 nM.

Take `CCOC(=O)c1ccc(NC(=S)NC(=O)c2cccc(NC(=O)c3ccc(C)cc3)c2)cc1` [Compound 9c, Ethyl 4–(3-(3–(4-methylbenzamido)benzoyl)thioureido)benzoate]: the melting point was 236 to 238 °C. The same molecule returned an inhibition constant (Ki) at hCA IX of 251 nM. The molecule further yielded a Ki at hCA XII of more than 100000 nM. This molecule returned an inhibition constant Ki on hCA I of more than 100000 nM. Further, the Ki at hCA II was 546 nM.

For the molecule `CCOC(=O)c1ccc(NC(=S)NC(=O)c2cccc(NC(=O)C(C)C)c2)cc1` [Compound 9b, Ethyl 4–(3-(3-isobutyramidobenzoyl)thioureido)benzoate], the melting point was 245 to 247 °C. The molecule also registered a Ki at hCA IX of 300 nM. The molecule also yielded a Ki on hCA XII of more than 100000 nM. The molecule also yielded a Ki on hCA I of 8660 nM. For the same molecule, the Ki at hCA II came to 57.1 nM.

`CCOC(=O)c1ccc(NC(=S)NC(=O)c2ccc(NC(C)=O)cc2)cc1` [Compound 9d, Ethyl 4–(3-(4-acetamidobenzoyl)thioureido)benzoate]: the melting point lay within 237 to 239 °C. Further, the affinity at hCA IX, expressed as Ki, was 1630 nM. This molecule came in with a Ki at hCA XII of more than 100000 nM. Also, the Ki on hCA I is more than 100000 nM. Also, the Ki at hCA II was more than 100000 nM.

Molecule `CC(C)C(=O)Nc1cccc(C(=O)NC(=S)Nc2ccc(C(=O)O)cc2)c1` [Compound 8b, 4-(3-(3-Isobutyramidobenzoyl)thioureido)benzoic acid] showed a melting point of 240 to 242 °C. The Ki on hCA IX amounted to 208 nM. The same molecule showed a Ki on hCA XII of 142 nM. The molecule further gave a Ki on hCA I of more than 100000 nM. On hCA II, this molecule returned a Ki of more than 100000 nM.

`Cc1ccc(C(=O)Nc2cccc(C(=O)NC(=S)Nc3ccc(C(=O)O)cc3)c2)cc1` [Compound 8c, 4-(3-(3-(4-Methylbenzamido)benzoyl)thioureido)benzoic acid]: the melting point fell in the range of 254 to 256 °C. On hCA IX, this molecule had an inhibition constant Ki of 264 nM. In addition, affinity on hCA XII was put at a Ki of 145 nM. Besides, at hCA I, the inhibition constant (Ki) was determined as 9170 nM. In addition, the Ki at hCA II came to 295 nM.

In the case of `CC(=O)Nc1cccc(C(=O)NC(=S)Nc2ccc(S(N)(=O)=O)cc2)c1` [Compound 7a, 3-Acetamido-N-((4-sulfamoylphenyl)carbamothioyl)benzamide], the melting point was 256 to 258 °C. This molecule registered an inhibitory constant (Ki) at hCA IX of 238 nM. The Ki on hCA XII is more than 100000 nM. Besides, the Ki at hCA I was determined as 58.2 nM. For the same molecule, the affinity at hCA II, expressed as Ki, was 2.5 nM.

With `CC(=O)Nc1ccc(C(=O)NC(=S)Nc2ccc(C(=O)O)cc2)cc1` [Compound 8d, 4-(3-(4-Acetamidobenzoyl)thioureido)benzoic acid], the melting point was in the range of 245 to 247 °C. At hCA IX, this molecule came in with a Ki of 971 nM. On hCA XII, this molecule had a Ki of more than 100000 nM. The molecule also came in with a Ki at hCA I of more than 100000 nM. The Ki on hCA II is 855 nM.

Consider `CCOC(=O)c1ccc(NC(=S)NC(=O)c2ccc(NC(=O)c3ccc(C)cc3)cc2)cc1` [Compound 9f, Ethyl 4–(3-(4–(4-methylbenzamido)benzoyl)thioureido)benzoate], for which the melting point was in the range of 237 to 239 °C. The molecule further returned a Ki on hCA IX of 1580 nM. This molecule showed a Ki on hCA XII of 155 nM. Further, the Ki at hCA I was more than 100000 nM. The Ki on hCA II was more than 100000 nM.

Turning to `CCOC(=O)c1ccc(NC(=S)NC(=O)c2ccc(NC(=O)C(C)C)cc2)cc1` [Compound 9e, Ethyl 4–(3-(4-isobutyramidobenzoyl)thioureido)benzoate], the melting point is 245 to 247 °C. At hCA IX, affinity was put at a Ki of 29 nM, the “Selectivity index I/IX” value was 293 and the “Selectivity index II/IX” value is 2.5. The affinity on hCA XII, expressed as Ki, was 202 nM. At hCA I, the inhibitory constant (Ki) came out at 8500 nM. Further, at hCA II, the affinity, expressed as Ki, was 73.2 nM.

Regarding `CC(C)C(=O)Nc1ccc(C(=O)NC(=S)Nc2ccc(S(N)(=O)=O)cc2)cc1` [Compound 7e, 4-Isobutyramido-N-((4-sulfamoylphenyl)carbamothioyl)benzamide], the melting point was in the range of 248 to 250 °C. Also, affinity at hCA IX was put at a Ki of 203 nM. On hCA XII, this molecule showed a Ki of 94 nM. The molecule further showed a Ki on hCA I of 333 nM. In addition, affinity on hCA II was put at a Ki of 39.6 nM.

`Cc1ccc(C(=O)Nc2ccc(C(=O)NC(=S)Nc3ccc(S(N)(=O)=O)cc3)cc2)cc1` [Compound 7f, 4-Methyl-N-(4(((4sulfamoylphenyl)carbamothioyl)carbamoyl)phenyl) benzamide]: the melting point is 228 to 230 °C. On hCA IX, affinity was put at a Ki of 30 nM, the “Selectivity index I/IX” value was 1.4 and the “Selectivity index II/IX” value is 1.3. On hCA XII, this molecule displayed an inhibitory constant (Ki) of 106 nM. The molecule further registered a Ki at hCA I of 43 nM. This molecule came in with a Ki on hCA II of 39 nM.

In general, IC50 refers to the concentration at which inhibition is half-maximal. Turning to `NS(=O)(=O)c1ccc(NC(=S)NC(=O)c2ccc(Cl)cc2Cl)cc1` [Compound A], the Ki on CA IX (compound A, printed in Figure 2, read-out: Ki hCA IX) was 0.12 nM. Also, the IC50 with CA IX (reported for compound A) is 0.12 nM.

The molecule `CC(=O)Nc1cccc(C(=O)NC(=S)Nc2ccc(C(=O)O)cc2)c1` [Compound 8a, 4-(3-(3-Acetamidobenzoyl)thioureido)benzoic acid] yielded a melting point of 247 to 249 °C. For the same molecule, the Ki at hCA IX was determined as 209 nM. Moreover, at hCA XII, the Ki is 17 nM, the “Selectivity index I/XII” value was 481 and the “Selectivity index II/XII” value was 318. On hCA I, this molecule gave a Ki of 8180 nM. Further, at hCA II, the affinity, expressed as Ki, was 5400 nM.

In the case of `CC(C)C(=O)Nc1cccc(C(=O)NC(=S)Nc2ccc(S(N)(=O)=O)cc2)c1` [Compound 7b, 3-Isobutyramido-N-((4-sulfamoylphenyl)carbamothioyl)benzamide], the melting point was in the range of 240 to 242 °C. This molecule also displayed a Ki on hCA IX of 149 nM. The Ki on hCA XII was more than 100000 nM. In addition, on hCA I, the affinity, expressed as Ki, was 56.3 nM. This molecule also displayed a Ki on hCA II of 2.1 nM.

For `Cc1ccc(C(=O)Nc2ccc(C(=O)NC(=S)Nc3ccc(C(=O)O)cc3)cc2)cc1` [Compound 8f, 4-(3-(4–(4-Methylbenzamido)benzoyl)thioureido)benzoic acid], the melting point was 254 to 256 °C. The molecule also came in with a Ki on hCA IX of 176 nM. Moreover, on hCA XII, the affinity, expressed as Ki, was 11 nM; the “Selectivity index I/XII” value was 38; the “Selectivity index II/XII” value was more than 9091. The same molecule came in with an inhibitory constant (Ki) at hCA I of 422 nM. This molecule also yielded a Ki on hCA II of more than 100000 nM.

As for `CCOC(=O)c1ccc(NC(=S)NC(=O)c2cccc(NC(C)=O)c2)cc1` [Compound 9a, Ethyl 4–(3-(3-acetamidobenzoyl)thioureido)benzoate], the melting point lay within 242 to 244 °C. Further, the Ki at hCA IX was determined as 2130 nM. At hCA XII, this molecule returned a Ki of more than 100000 nM. This molecule returned a Ki on hCA I of 9040 nM. On hCA II, this molecule registered an inhibition constant Ki of more than 100000 nM.

(Values after article PMC9621292, “Design and synthesis of some new benzoylthioureido benzenesulfonamide derivatives and their analogues as carbonic anhydrase inhibitors” (Journal of Enzyme Inhibition and Medicinal Chemistry, 2022).)
